These compounds were tested on ULK kinase substrate ATG13 (pS318-ATG13) in HCT-116 cells (assay: pATG13 levels of mutant KRas HCT-116 cells after treatment with ULK inhibitors in combination with trametinib (ELISA)). Settings: not given.
Assay type: cell-based, human
Method: pATG13 Levels of Mutant KRas HCT-116 Cells after Treatment with ULK Inhibitors in Combination with Trametinib
HCT-116 human colon cancer cells (10000 cells/well) were added to a 384-well tissue-culture treated plate in 50 μL of pre-warmed DMEM medium supplemented with 10% characterized fetal bovine serum (Invitrogen, Carlsbad, CA), 100 units/mL penicillin G, and 100 μg/mL streptomycin and allowed to grow overnight at 37° C., 5% CO2, and 95% humidity. The following day, 10 μL of media containing trametinib or DMSO as a control was added to wells. The final concentration of trametinib in wells was 250 nM. A dose response of a test compound (0.6 μL per well) was added. DMSO (0.6 μL) was added to control wells. The plate was briefly shaken to mix wells and then incubated at 37° C. overnight. The next day, the media was aspirated and cells were washed with Dulbecco's Phosphate Buffered Saline (Gibco). Cells were lysed using MPER lysis buffer (Pierce, Rockford, IL) containing Halt Phosphatase and Protease Inhibitors (Pierce, Rockford, IL) and Phosphatase inhibitor cocktail 2 (Sigma, St. Louis, MO) at 4° C. for 10 minutes with shaking.
(§1) Cellular levels of phospho-Serine 318 ATG13 (pATG13) were measured via an ELISA method. Total ATG13 Antibody (Cell Signaling Cat #13273) was used to coat the wells. The plate was incubated at 4° C. overnight and washed with ELISA wash buffer (Biolegend Cat #421601). The wells were then blocked with assay diluent (Biolegend Cat #421203) for 1 h at rt. Plate wells were washed with ELISA wash buffer. Cell lysate was added to wells and incubated at rt for 2 h. Plate wells were washed with ELISA wash buffer. Biotinylated pS318-ATG13 antibody (Rockland Immunochemicals Cat #600-401-C49) was diluted in assay diluent and added to each well and incubated at rt for 1 h. Plate wells were washed with ELISA wash buffer. Streptavidin linked to horseradish peroxidase (Thermo Fisher Cat #21140) was diluted in assay diluent and added to each well and incubated at rt for 1 h. Plate wells were washed with ELISA wash buffer. High sensitivity TMB substrate (Biolegend Cat #421101) was added to each well and incubated at rt for 20 minutes. The reaction was stopped with 2.0N sulfuric acid. The plate was analyzed at on a plate reader measuring absorbance at 450 nm and 540 nm (background). Signal was calculated by first subtracting the background absorbance at 540 nm from the absorbance at 450 nm for each well. Next, the background corrected absorbance at 450 nm from blank wells was subtracted from test wells. Data was compared to control wells to determine % ATG13 phosphorylation. GraphPad Prism was used to calculate IC50 values.
`CC/C(Nc1cnn(C2CCN(C(C)C)CC2)c1)=C1/C(=O)Nc2ccc(C(=O)NC[C@H]3CCCO3)cc21` [Example 1, (R,Z)-3-(1-((1-(1-isopropylpiperidin-4-yl)-1H-pyrazol-4-yl)amino)propylidene)-2-oxo-N-((tetrahydrofuran-2-yl)methyl)indoline-5-carboxamide] gave an IC50 of no more than 100 nM.
`CC/C(Nc1ccc(N2CCN(C)CC2)cn1)=C1/C(=O)Nc2ccc(C(=O)NCC(F)(F)F)cc21` [Example 75] was tested, and the IC50 was no more than 100 nM.
Work on `CC/C(Nc1cnn(C)c1)=C1/C(=O)Nc2ccc(C(=O)NCC(F)(F)F)cc21` [Example 77] yielded an IC50 of no more than 100 nM.
`CC/C(Nc1cnn(C2CCN(C(C)C)CC2)c1)=C1/C(=O)Nc2ccc(C(=O)NCCOC(F)(F)F)cc21` [Example 82] was tested, and the IC50 was greater than 600 nM.
`CC/C(Nc1cnn(C2CN(C)C2)c1)=C1/C(=O)Nc2ccc(C(=O)NCC(F)(F)F)cc21` [Example 86] showed an IC50 of no more than 100 nM.

Each compound was assayed on ULK kinase substrate ATG13 (pS318-ATG13) in T24 cells (assay: pATG13 levels of mutant HRas T24 cells after treatment with ULK inhibitors in combination with trametinib (ELISA)). Settings: in combination with trametinib 250 nM.
Assay type: cell-based, human
Method: pATG13 Levels of Mutant HRas T24 Cells after Treatment with ULK Inhibitors in Combination with Trametinib
T24 human urinary bladder cancer cells (25000 cells/well) were added to a 96-well tissue-culture treated plate in 100 μL of pre-warmed DMEM medium supplemented with 10% characterized fetal bovine serum (Invitrogen, Carlsbad, CA), 100 units/mL penicillin G, and 100 μg/mL streptomycin and allowed to grow overnight at 37° C., 5% CO2, and 95% humidity. The following day, 100 μL of media containing trametinib or DMSO as a control was added to wells. The final concentration of trametinib in wells was 250 nM. A dose response of a test compound (0.5 μL per well) was added. DMSO (0.5 μL) was added to control wells. The plate was briefly shaken to mix wells and then incubated at 37° C. overnight. The next day, the media was aspirated and cells were washed with Dulbecco's Phosphate Buffered Saline (Gibco). Cells were lysed using MPER lysis buffer (Pierce, Rockford, IL) containing Halt Phosphatase and Protease Inhibitors (Pierce, Rockford, IL) and Phosphatase inhibitor cocktail 2 (Sigma, St. Louis, MO) at 4° C. for 10 min with shaking.
as §1, with “min.” for “minutes.”
In the case of `CC/C(Nc1cnn(C2CCN(C(C)C)CC2)c1)=C1/C(=O)Nc2ccc(C(=O)NC[C@H]3CCCO3)cc21` [Example 1, (R,Z)-3-(1-((1-(1-isopropylpiperidin-4-yl)-1H-pyrazol-4-yl)amino)propylidene)-2-oxo-N-((tetrahydrofuran-2-yl)methyl)indoline-5-carboxamide], the IC50 is reported as no more than 100 nM.

From patent publication US20240150368A1, “ULK INHIBITORS AND METHODS OF USE THEREOF” (Deciphera Pharmaceuticals, LLC, priority 2022, published 2024)
